Source: US20240374535A1, “COMPOSITIONS AND METHODS FOR TREATING BIOFILM DISORDERS AND INFECTIONS” (AHV International B.V., priority 2021, published 2024)

Tests used:
[1] = tested on: Staphylococcus epidermis ATCC 35984; test: MIC assay (planktonic growth inhibition, OD600); assay type: cell-based, S. epidermidis; conditions: 24 h at 37° C.; for IC50 / S. epidermidis MIC50: minimal concentration reducing final OD600 by 50%; for IC50: read-out: S. epidermidis MIC50; for IC90 / S. epidermidis MIC90: minimal concentration reducing final OD600 by 90%; for IC90: read-out: S. epidermidis MIC90
Procedure: (§1) The exact weighed amount was noted and the volume of solvent to reach a 80 mM dilution calculated. Half of the volume was added first, by adding Tween 80. In a second step, the other half of the volume DMSO was added and the closed tube inverted 5-10 times and then vortexed very thoroughly for at least 30 seconds. If after this procedure unsolved material was still visible, the tube was placed in a shaker at 37° C. at 150 rpm for at least 30 minutes. […] For the MBEC assay (method 1.3) the solution needs to be diluted to a final concentration of 2 mM in 0.9% saline solution and then further diluted to 1 mM, 0.5 mM, 0.25 mM and 0.125 mM in saline. Those dilutions were added as treatment to the 96 well plates with the grown biofilm (see method 3).
(§2) Frozen aliquots of Staphylococcus epidermis ATCC 35984 and Pseudomonas aeruginosa ATCC 27853 were used to inoculate a tryptic soy agar (TSA) plate and incubated overnight at 37° C. After incubation 3-5 well-isolated colonies with the same morphology were selected from the TSA plate and resuspended in 2 mL 0.9% saline solution with 3-6 glass beads and vortexed. The optical density at 600 nm (OD600) of the bacterial suspension was measured with a spectrophotometer (Evolution™ 201/220 UV-Visible Spectrophotometer, Thermo Fisher Scientific) and diluted to an OD600 of 0.0008, which resembles 10^6 CFU/mL.
(§3) The MIC assay was performed in a flat-bottom 96-microtiter plate. 50 μL of MHB-II was added into columns 2-11, and 100 μL to column 12 for sterility control. 100 μL of the 8 mM test compound solution (method 1) was added to column 1. A two-fold dilution series of the solution in MHB-II was achieved by resuspending 50 μL of the 8 mM solution from column 1 to column 2. This step was repeated until column 10. The respective concentration of Tween 80 and DMSO in column 1 was 2.5%, which is two-fold diluted throughout the plate. 50 μL of the bacterial suspension was added to column 1-11. The microtiter plates were sealed with adhesive polyethylene film for sealing microplates (Diversified Biotech) and incubated for 24 h at 37° C. After incubation the OD was measured at 600 nm with the Varioskan (Thermo Fisher Scientific). […] This assay was repeated three times in three independent experiments.

[2] = tested on: Pseudomonas aeruginosa ATCC 27853; test: MIC assay (planktonic growth inhibition, OD600); assay type: cell-based, P. aeruginosa; conditions: 24 h at 37° C.; for IC50 / IC90: Pseudomonas aeruginosa, ATCC27853; for IC50 / P. aeruginosa MIC50: minimal concentration reducing final OD600 by 50%; for IC50: read-out: P. aeruginosa MIC50; for IC90 / P. aeruginosa MIC90: minimal concentration reducing final OD600 by 90%; for IC90: read-out: P. aeruginosa MIC90
Procedure: as §1, §2, §3

[3] = tested on: Staphylococcus epidermis ATCC 35984 biofilm; test: MBEC assay (biofilm eradication, CFU log reduction); assay type: cell-based, S. epidermidis; conditions: 48 h grown biofilm, 20 h treatment, CFU log reduction vs untreated; for minimal effective concentration: read-out: S. epidermidis MBEC mM with log reduction ≥1
Procedure: as §1
(§4) Frozen aliquots of Staphylococcus epidermis ATCC 35984 and Pseudomonas aeruginosa ATCC 27853 were used to inoculate 20 mL of Tryptic Soy Broth (TSB) in a 100 mL Erlenmeyer flask at 37° C. and 150 rpm and incubated overnight (Infors). The OD600 of the overnight culture was measured with a spectrophotometer (Evolution™ 201/220 UV-Visible Spectrophotometer, Thermo Fisher Scientific) and diluted to an OD600 of 0.2, which resembles 10^8 CFU/mL. The cell suspension of OD600=0.2 was seeded into a U-bottom-shaped 96 well plates by pipetting 100 μL per well in column 1-11, column 12 was filled with 100 μL medium as sterility control. The 96 well plates were sealed with adhesive polyethylene film for sealing microplates and incubated for 48 h at 37° C. at static conditions. After the biofilm growth phase, 100 μL of treatment solutions (method 1) were added to the vials resulting in treatment concentrations of 1 mM, 0.5 mM, 0.25 mM and 0.125 mM and with the respective concentration of Tween 80 and DMSO each at 0.63%, 0.32%, 0.16% and 0.08%. The same concentration was applied to four different wells of the same bacterial strain, resulting in four replicates for each concentration and strain. The treatment was incubated for 20 h at 37° C. at static conditions. After the treatment the supernatant was carefully removed and the well with the biofilm washed carefully for one time with 200 μL 0.9% saline solution. 200 μL saline solution was added and the biofilm was resuspended thoroughly. When fully homogenized then 20 μL was used for the first dilution in 180 μL 0.9% saline solution, which was prepared in a second plate. This dilution was continued until dilution step 10E−5 and 100 μL of the 10E−4 and 10E−5 dilution plated on a TSA plate. The TSA plates were incubated at 37° C. for 24 h. The colonies on the plates were enumerated, the colony forming units per mL of the dispensed biofilm and averages thereof and the log reduction in comparison with the untreated sample from the same wells plate calculated. Reduction of colony forming units goes hand in hand with the thickness of the biofilm and thus with the number bacteria that are present in the biofilm. Therefore, a significant reduction of colony forming units in the biofilm was defined at the value of log reduction ≥1 or more. This assay was repeated two times in two independent experiments)

[4] = tested on: Pseudomonas aeruginosa ATCC 27853 biofilm; test: as above; assay type: cell-based, P. aeruginosa; conditions: 48 h grown biofilm, 20 h treatment, CFU log reduction vs untreated; for minimal effective concentration: Pseudomonas aeruginosa, ATCC27853, read-out: P. aeruginosa MBEC mM with log reduction ≥1
Procedure: as §1, §4

[5] = tested on: Staphylococcus epidermis ATCC 35984 biofilm; test: MBIC assay (biofilm inhibition, crystal violet); assay type: cell-based, S. epidermidis; conditions: 48 h incubation, absorbance 540 nm
Procedure: as §1
(§5) Frozen aliquots of Staphylococcus epidermis ATCC 35984 and Pseudomonas aeruginosa ATCC 27853 were used to inoculate a tryptic soy agar (TSA) plate and were incubated overnight at 37° C. After incubation 3-5 well-isolated colonies with the same morphology were selected from the TSA plate and resuspended in 2 mL 0.9% saline solution with 3-6 glass beads and vortexed. The optical density of the bacterial suspension was measured at 600 nm (OD600) with a spectrophotometer (Evolution™ 201/220 UV-Visible Spectrophotometer, Thermo Fisher Scientific) and diluted to an OD600 of 0.2. The MBIC assay was performed in a 96-microtiter plate. 50 μL of TSB was added into columns 2-11, and 100 μL to column 12 for sterility control. 100 μL of the 8 mM test compound solution (method 1) was added to column 1. A two-fold dilution series of the solution in TSB was achieved by resuspending 50 μL of the 8 mM solution from column 1 in column 2. This step was repeated until column 10. The respective concentration of Tween 80 and DMSO in column 1 is at 2.5%, which is two-fold diluted throughout the plate. 50 μL of the bacterial suspension was added to column 1-11. The microtiter plates were sealed with adhesive polyethylene film for sealing microplates (Diversified Biotech) and incubated for 48 h at 37° C. After incubation the supernatant is carefully removed and the well with the biofilm washed for one time with 100 μL 0.9% saline solution. 100 μL 0.1 M HCl was added and incubated for 1 h at room temperature to fix the biofilm. After incubation the HCl was removed and 100 μL crystal violet (0.1% v/v in water) was added and incubated for 30 min at room temperature. The unbound crystal violet was removed and the wells washed one time with 100 μL demineralized water. 100 μL 30% acetic acid was added and incubated for 1 h at 37° C. and 150 rpm. The solution was resuspended and transferred to a flat-bottom 96-well plate and the absorbance measured at 540 nm with the spectrophotometer. This assay was repeated two times in two independent experiments.

[6] = tested on: Pseudomonas aeruginosa ATCC 27853 biofilm; test: MBIC assay (biofilm inhibition, crystal violet); assay type: cell-based, P. aeruginosa; conditions: 48 h incubation, absorbance 540 nm
Procedure: as §1, §5

udder cleft wound = test: In vivo udder cleft dermatitis test: wound assessment after spray treatment; set-up: species or system cow; conditions: for Conclusion (effect on udder cleft wound): over 60 days, all cows of the group
Procedure: An example of a biofilm-related disorder is Udder Cleft Dermatitis (UCD), which relates to a chronic wound. In this Example, di-alkyl thiosulfonates, dialkyl thiosulfinates and di-alkyl disulfides were tested for their effect on cows affected by UCD.
Experiments were performed to examine the effect of various sprays containing water (control), a test compound, or a reference compound (CTC spray, which contains chlorotetracycline hydrochloride, and was obtained from Dechra veterinary products).
0.35 mL of the spray was sprayed on an udder cleft wound per treatment. Treatments took place once a day at t=0, at t=3 days and t=6 days. In Table 6, the assessment qualifications that are used in Table 7, are explained.

Clc1ccc(SSc2ccc(Cl)cc2)cc1 [Bis (4-chlorophenyl) disulfide, Bis(4-chlorophenyl) disulfide]
IC50 [1]: 0.01 mM
IC90 [1]: 0.03 mM
IC50 [2]: 0.02 mM
IC90 [2]: 0.03 mM
minimal effective concentration [3]: > 1 mM
minimal effective concentration [4]: > 1 mM
S. epidermidis MBIC90 [5]: >4 mM
P. aeruginosa MBIC90 [6]: >4 mM

Cc1ccc(S[S+]([O-])c2ccc(C)cc2)cc1 (stereo not drawn) [Bis (p-tolyl) thiosulfinate]
S. epidermidis MIC50 [1]: 125 µM
S. epidermidis MIC90 [1]: 250 µM
P. aeruginosa MIC50 [2]: 125 µM
P. aeruginosa MIC90 [2]: 250 µM
S. epidermidis MBEC mM with log reduction ≥1 [3]: 1 mM
P. aeruginosa MBEC mM with log reduction ≥1 [4]: 1 mM
S. epidermidis MBIC90 [5]: >4 mM
P. aeruginosa MBIC90 [6]: >4 mM

[O-][S+](Cc1ccccc1)SCc1ccccc1 [D-benzyl thiosulfinate, Di-benzyl thiosulfinate]
S. epidermidis MIC50 [1]: 30 µM
S. epidermidis MIC90 [1]: 30 µM
P. aeruginosa MIC50 [2]: 60 µM
P. aeruginosa MIC90 [2]: 500 µM
S. epidermidis MBEC mM with log reduction ≥1 [3]: 1 mM
P. aeruginosa MBEC mM with log reduction ≥1 [4]: 0.125 mM
S. epidermidis MBIC90 [5]: 4 mM
P. aeruginosa MBIC90 [6]: >4 mM

CC(C)SSC(C)C [Di-isopropyl disulfide]
IC50 [1]: > 4 mM
IC90 [1]: > 4 mM
IC50 [2]: > 4 mM
IC90 [2]: > 4 mM
minimal effective concentration [3]: > 1 mM
minimal effective concentration [4]: > 1 mM
Conclusion (effect on udder cleft wound) (udder cleft wound): No effect

CC(C)S[S+]([O-])C(C)C (stereo not drawn) [Di-isopropyl thiosulfinate]
S. epidermidis MIC50 [1]: 2000 µM
S. epidermidis MIC90 [1]: 2000 µM
P. aeruginosa MIC50 [2]: 2000 µM
P. aeruginosa MIC90 [2]: 4000 µM
S. epidermidis MBEC mM with log reduction ≥1 [3]: 0.5 mM
P. aeruginosa MBEC mM with log reduction ≥1 [4]: 0.125 mM
S. epidermidis MBIC90 [5]: >4 mM
P. aeruginosa MBIC90 [6]: >4 mM

CCCCSSCCCC [Di-n-butyl disulfide]
IC50 [1]: > 4 mM
IC90 [1]: > 4 mM
IC50 [2]: > 4 mM
IC90 [2]: > 4 mM
minimal effective concentration [3]: > 1 mM
minimal effective concentration [4]: > 1 mM
Conclusion (effect on udder cleft wound) (udder cleft wound): No effect

CCCSSCCC [Di-n-propyl disulfide]
IC50 [1]: > 4 mM
IC90 [1]: > 4 mM
IC50 [2]: > 4 mM
IC90 [2]: > 4 mM
minimal effective concentration [3]: > 4 mM
minimal effective concentration [4]: > 4 mM
S. epidermidis MBIC90 [5]: 4 mM
P. aeruginosa MBIC90 [6]: >4 mM
inflammation of the udder cleft wound after treatment (udder cleft wound; immediately after the treatment, later infection reduced and wound healed): fast inflammation reduction
Conclusion (effect on udder cleft wound) (udder cleft wound): Positive effect

Cc1ccc(SSc2ccc(C)cc2)cc1 [Di-p-tolyl disulfide]
IC50 [1]: > 4 mM
IC90 [1]: > 4 mM
IC50 [2]: > 4 mM
IC90 [2]: > 4 mM
minimal effective concentration [3]: > 1 mM
minimal effective concentration [4]: > 1 mM
S. epidermidis MBIC90 [5]: >4 mM
P. aeruginosa MBIC90 [6]: 4 mM
Conclusion (effect on udder cleft wound) (udder cleft wound): No effect

c1ccc(SSc2ccccc2)cc1 [Di-phenyl disulfide]
IC50 [1]: 0.125 mM
IC90 [1]: > 4 mM
IC50 [2]: 2 mM
IC90 [2]: > 4 mM
minimal effective concentration [3]: > 1 mM
minimal effective concentration [4]: 0.125 mM
Conclusion (effect on udder cleft wound) (udder cleft wound): No effect

[O-][S+](Sc1ccccc1)c1ccccc1 (stereo not drawn) [Di-phenyl thiosulfinate]
S. epidermidis MIC50 [1]: 1000 µM
S. epidermidis MIC90 [1]: 1000 µM
P. aeruginosa MIC50 [2]: 1000 µM
P. aeruginosa MIC90 [2]: 1000 µM
S. epidermidis MBEC mM with log reduction ≥1 [3]: 2 mM
P. aeruginosa MBEC mM with log reduction ≥1 [4]: 2 mM
S. epidermidis MBIC90 [5]: >4 mM
P. aeruginosa MBIC90 [6]: >4 mM
Conclusion (effect on udder cleft wound) (udder cleft wound): No effect
